In ChEMBL document CHEMBL1201862, “PubChem BioAssay data set” (2004):
Calls of active or inactive are those of the source.

How the values were obtained:
[1] = cells; format: functional
[2] = test system: P388/ADR; assay: cells; format: functional; conditions: Mus musculus
[3] = test system: SN12K1; assay: cells; format: functional; conditions: Homo sapiens
[4] = test system: P388; assay: cells; format: functional; conditions: Mus musculus
[5] = reduction of Shn3 3'UTR-driven luciferase in osteoblasts – cell-based, Clone20 osteoblasts, firefly luciferase, cherry-picked, dose response (AID 624132); format: functional;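 also: firefly luciferase luminescence from reporter carrying the Shn3 3'UTR in osteoblasts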
[6] = loss of viability in HepG2 cells – cell-based, CellTiter-Glo, cherry-picked, cytotoxicity control for Shn3 inhibitor project, dose response (AID 624134); format: functional
[7] = non-specific 3'UTR reporter inhibition in Clone20-Shn3RL – cell-based, Renilla luciferase, cherry-picked, counter-screen for Shn3 inhibitor project, dose response (AID 624133); format: functional
[8] = Luminescence Cell-Based Dose Confirmation HTS to Identify Activators of 5'UTR Stem-Loop Driven Alpha-Synuclein mRNA Translation in H4 Neuroglioblastoma Cells. [Related pubchem assays: 1829 (Project Summary), 1814 (Primary HTS)]; format: functional
[9] = Luminescence Cell-Based Dose Response HTS to Identify Activators of Luciferase Translation or Activity in H4 […] Cells. [Related pubchem assays: 1829 (Project Summary), 1814 (Primary HTS)]; format: functional
[10] = test system: H4; assay: Luminescence Cell-Based Dose Response HTS to Identify Activators of 5'UTR Stem-Loop Driven Prion Protein mRNA Translation in H4 Neuroglioblastoma Cells. [Related pubchem assays: 1829 (Project Summary), 1814 (Primary HTS)]; format: functional; conditions: Homo sapiens
[11] = target: Genome polyprotein (dengue virus type 2, UniProt P29990); assay: flavivirus cap methylation enzyme inhibition – biochemical, confirmation dose response, primary screen (AID 588689); format: functional
[12] = target: Nonstructural protein 1 (Influenza A virus, UniProt Q194T2); format: functional, Influenza A virus (A/California/07/2009(H1N1))
[13] = target: Fatty acid synthase (Homo sapiens, UniProt P49327); assay: inhibition of human FAS-TE enzyme activity – biochemical, kinetic fluorescence intensity, dose response (AID 624326); format: functional;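 also: rate of fluorescence rise from hydrolysis of a fluorogenic O-methyl fluorescein ester substrate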
[14] = Trypanosoma cruzi growth suppression in host cells – NIH3T3 host cells, beta-gal luminescence, confirmation (AID 2044); format: functional, cell-based;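 also: intracellular parasites grown in NIH/3T3 mouse fibroblasts as host cells; luminescent beta-galactosidase reporter signal from transgenic T. cruzi replicating inside host cells; inhibitors lower the luminescence signal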
[15] = NIH3T3 cell viability loss – ATP luminescence, mouse fibroblasts, counter-screen, dose response (AID 2010); format: functional, cell-based;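 also: cells exposed to compound for about 90 hours before reading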
[16] = target: T1, Rac GTPase-activating protein 1 (Homo sapiens, UniProt Q9H0H5); assay: blockers of MgcRacGAP-driven Rac1 GTP hydrolysis – biochemical, ADP Hunter fluorescence, primary and confirmatory, confirmation (AID 624330); format: functional
T1 sequence (Q9H0H5 whole entry): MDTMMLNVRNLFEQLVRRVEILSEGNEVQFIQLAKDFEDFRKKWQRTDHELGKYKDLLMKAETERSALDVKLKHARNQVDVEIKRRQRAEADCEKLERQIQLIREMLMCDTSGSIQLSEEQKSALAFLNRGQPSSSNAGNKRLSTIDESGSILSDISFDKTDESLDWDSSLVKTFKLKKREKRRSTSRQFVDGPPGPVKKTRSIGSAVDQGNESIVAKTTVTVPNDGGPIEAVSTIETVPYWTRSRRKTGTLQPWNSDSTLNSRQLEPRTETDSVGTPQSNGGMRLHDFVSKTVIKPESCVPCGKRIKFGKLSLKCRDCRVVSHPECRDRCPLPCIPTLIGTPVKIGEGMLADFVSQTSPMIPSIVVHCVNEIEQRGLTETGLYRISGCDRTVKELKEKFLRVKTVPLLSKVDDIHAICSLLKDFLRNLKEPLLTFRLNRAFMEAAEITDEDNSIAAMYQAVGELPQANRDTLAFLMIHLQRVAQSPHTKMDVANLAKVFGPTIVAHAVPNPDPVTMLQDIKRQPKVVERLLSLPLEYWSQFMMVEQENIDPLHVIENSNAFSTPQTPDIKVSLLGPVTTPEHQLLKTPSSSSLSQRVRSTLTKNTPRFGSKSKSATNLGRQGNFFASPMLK

[17] = target: T2, RNA-binding protein pos-1 (Caenorhabditis elegans, UniProt G5EF15); assay: disruptors of C. elegans POS-1 RNA interaction – biochemical, fluorescence polarization, dose response (AID 1964);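 also: purified POS-1 fused to maltose binding protein made in E. coli; potency of compounds blocking POS-1 binding to fluorescent RNA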
T2 sequence (G5EF15 whole entry): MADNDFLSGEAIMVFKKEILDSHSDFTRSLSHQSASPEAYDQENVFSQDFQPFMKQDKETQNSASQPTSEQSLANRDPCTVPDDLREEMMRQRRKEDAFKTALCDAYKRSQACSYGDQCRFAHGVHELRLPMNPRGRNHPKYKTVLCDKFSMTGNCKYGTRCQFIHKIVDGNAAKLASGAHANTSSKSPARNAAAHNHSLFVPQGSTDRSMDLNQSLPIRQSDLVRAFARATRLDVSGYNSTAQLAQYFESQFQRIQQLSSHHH

[18] = target: T3, Zinc finger protein mex-5 (Caenorhabditis elegans, UniProt Q9XUB2); assay: potency of MEX-5 RNA-binding blockers – biochemical, C. elegans, fluorescence polarization, dose response (AID 1960)
T3 sequence (Q9XUB2 whole entry): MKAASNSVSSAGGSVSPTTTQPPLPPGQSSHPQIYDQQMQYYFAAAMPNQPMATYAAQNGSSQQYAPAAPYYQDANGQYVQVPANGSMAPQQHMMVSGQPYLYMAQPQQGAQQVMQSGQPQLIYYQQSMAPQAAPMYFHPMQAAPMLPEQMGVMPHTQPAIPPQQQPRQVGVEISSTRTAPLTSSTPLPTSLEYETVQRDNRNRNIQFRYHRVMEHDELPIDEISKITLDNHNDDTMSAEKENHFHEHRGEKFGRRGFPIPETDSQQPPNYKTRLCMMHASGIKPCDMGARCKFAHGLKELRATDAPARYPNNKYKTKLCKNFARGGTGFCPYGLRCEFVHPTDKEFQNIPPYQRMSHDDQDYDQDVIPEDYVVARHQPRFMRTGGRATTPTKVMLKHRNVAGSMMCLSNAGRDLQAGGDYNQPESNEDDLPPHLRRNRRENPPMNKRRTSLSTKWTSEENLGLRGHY

[19] = target: Luciferin 4-monooxygenase (Photinus pyralis, UniProt P08659); assay: inhibition of purified Photinus pyralis luciferase – biochemical, luminescence, dose response (AID 1891)
[20] = Luminescence Cell-Based Dose Confirmation HTS to Identify Inhibitors of Platelet Dense Granule Release. [Related pubchem assays: 1663 (Primary HTS), 1678 (Summary of Project)]; format: functional

Sequence of Genome polyprotein (P29990 2492-3391 limits assumed): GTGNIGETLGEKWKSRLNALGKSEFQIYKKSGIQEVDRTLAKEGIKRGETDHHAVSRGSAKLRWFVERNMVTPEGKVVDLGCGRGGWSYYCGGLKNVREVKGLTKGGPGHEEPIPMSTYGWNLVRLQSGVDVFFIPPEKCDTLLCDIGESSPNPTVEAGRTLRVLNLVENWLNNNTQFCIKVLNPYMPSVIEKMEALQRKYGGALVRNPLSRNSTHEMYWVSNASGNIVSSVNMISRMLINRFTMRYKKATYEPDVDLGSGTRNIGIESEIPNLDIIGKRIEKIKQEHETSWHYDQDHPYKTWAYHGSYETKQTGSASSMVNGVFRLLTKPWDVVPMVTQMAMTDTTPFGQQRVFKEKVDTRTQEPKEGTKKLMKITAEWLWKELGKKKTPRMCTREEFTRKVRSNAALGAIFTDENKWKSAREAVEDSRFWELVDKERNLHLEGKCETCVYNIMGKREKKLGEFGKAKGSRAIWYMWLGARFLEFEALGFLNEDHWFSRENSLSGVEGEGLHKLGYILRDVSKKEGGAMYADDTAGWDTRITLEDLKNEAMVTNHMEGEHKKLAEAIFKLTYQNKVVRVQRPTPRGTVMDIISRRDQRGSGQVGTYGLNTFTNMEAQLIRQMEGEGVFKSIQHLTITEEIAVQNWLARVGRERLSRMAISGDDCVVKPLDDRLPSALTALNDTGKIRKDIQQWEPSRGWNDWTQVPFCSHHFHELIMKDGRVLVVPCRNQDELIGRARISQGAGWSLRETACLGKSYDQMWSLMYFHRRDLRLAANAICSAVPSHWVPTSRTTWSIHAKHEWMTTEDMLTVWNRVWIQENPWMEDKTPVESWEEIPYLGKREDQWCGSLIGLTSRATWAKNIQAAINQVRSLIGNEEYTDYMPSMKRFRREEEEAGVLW
Sequence of Nonstructural protein 1 (Q194T2 whole entry): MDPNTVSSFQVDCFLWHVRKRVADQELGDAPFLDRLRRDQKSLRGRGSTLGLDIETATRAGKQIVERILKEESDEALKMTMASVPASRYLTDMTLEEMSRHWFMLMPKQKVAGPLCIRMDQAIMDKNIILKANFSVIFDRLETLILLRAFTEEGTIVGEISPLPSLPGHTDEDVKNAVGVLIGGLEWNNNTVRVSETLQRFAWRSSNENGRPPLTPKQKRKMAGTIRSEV
Sequence of Fatty acid synthase (P49327 whole entry): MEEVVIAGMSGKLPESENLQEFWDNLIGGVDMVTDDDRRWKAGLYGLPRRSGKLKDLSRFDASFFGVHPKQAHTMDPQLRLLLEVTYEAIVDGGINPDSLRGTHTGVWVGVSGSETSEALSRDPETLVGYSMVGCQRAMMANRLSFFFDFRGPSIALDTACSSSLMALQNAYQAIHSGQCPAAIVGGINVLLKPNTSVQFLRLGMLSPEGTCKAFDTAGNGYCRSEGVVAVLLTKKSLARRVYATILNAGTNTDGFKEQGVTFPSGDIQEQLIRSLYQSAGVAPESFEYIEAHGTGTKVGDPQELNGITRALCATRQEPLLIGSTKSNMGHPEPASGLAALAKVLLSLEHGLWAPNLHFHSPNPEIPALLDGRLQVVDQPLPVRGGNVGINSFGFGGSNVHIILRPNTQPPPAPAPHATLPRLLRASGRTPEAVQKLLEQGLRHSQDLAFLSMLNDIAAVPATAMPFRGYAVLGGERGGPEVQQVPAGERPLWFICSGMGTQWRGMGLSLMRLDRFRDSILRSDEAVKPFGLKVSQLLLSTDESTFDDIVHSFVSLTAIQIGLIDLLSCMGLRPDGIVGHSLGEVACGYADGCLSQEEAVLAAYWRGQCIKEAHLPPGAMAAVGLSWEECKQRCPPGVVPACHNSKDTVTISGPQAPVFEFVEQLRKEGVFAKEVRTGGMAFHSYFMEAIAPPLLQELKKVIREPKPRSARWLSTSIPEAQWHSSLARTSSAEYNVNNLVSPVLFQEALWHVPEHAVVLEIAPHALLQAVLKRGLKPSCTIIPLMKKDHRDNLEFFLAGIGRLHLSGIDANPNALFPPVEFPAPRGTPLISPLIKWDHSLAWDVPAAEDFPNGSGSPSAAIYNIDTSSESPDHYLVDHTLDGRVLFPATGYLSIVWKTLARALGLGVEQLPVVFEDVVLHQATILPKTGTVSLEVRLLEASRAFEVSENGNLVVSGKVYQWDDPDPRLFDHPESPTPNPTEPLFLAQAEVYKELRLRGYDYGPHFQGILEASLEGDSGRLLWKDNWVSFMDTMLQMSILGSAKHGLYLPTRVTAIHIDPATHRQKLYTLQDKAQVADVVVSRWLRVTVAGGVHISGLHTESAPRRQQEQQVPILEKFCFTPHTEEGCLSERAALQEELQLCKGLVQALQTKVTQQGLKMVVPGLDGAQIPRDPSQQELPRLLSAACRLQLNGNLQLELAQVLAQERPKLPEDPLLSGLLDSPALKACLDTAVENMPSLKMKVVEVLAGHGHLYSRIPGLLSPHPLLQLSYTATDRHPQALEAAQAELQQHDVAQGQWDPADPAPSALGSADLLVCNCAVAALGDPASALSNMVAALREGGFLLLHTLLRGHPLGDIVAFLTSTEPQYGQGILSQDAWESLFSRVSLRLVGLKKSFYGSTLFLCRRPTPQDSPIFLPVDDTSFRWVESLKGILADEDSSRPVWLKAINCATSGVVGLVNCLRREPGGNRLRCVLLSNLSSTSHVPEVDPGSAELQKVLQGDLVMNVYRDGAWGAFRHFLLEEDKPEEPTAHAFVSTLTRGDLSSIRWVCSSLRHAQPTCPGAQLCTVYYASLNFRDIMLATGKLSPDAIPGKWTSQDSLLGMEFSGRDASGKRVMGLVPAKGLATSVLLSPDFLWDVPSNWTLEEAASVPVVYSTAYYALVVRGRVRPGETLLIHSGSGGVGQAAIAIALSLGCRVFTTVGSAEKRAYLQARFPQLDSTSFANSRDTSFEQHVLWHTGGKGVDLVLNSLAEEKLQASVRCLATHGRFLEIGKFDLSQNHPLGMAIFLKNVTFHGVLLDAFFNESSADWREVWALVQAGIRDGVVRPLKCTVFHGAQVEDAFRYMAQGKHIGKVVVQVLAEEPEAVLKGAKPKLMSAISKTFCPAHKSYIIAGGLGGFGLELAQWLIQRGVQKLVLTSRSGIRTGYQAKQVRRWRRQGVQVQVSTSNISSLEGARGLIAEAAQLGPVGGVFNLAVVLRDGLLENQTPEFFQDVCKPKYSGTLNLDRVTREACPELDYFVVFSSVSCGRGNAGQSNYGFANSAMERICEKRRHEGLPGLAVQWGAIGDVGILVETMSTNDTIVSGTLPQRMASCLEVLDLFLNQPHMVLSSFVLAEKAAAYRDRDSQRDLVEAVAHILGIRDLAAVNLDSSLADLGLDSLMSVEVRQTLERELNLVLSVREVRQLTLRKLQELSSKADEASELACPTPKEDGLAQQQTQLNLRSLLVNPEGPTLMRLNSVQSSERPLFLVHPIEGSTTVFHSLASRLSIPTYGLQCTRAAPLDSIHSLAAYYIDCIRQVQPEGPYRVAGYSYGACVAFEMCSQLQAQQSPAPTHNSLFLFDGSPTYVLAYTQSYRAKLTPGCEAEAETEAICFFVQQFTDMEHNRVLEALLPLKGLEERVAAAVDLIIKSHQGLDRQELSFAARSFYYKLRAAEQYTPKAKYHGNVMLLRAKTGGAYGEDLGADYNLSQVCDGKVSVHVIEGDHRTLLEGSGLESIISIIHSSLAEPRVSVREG
Sequence of Luciferin 4-monooxygenase (P08659 whole entry): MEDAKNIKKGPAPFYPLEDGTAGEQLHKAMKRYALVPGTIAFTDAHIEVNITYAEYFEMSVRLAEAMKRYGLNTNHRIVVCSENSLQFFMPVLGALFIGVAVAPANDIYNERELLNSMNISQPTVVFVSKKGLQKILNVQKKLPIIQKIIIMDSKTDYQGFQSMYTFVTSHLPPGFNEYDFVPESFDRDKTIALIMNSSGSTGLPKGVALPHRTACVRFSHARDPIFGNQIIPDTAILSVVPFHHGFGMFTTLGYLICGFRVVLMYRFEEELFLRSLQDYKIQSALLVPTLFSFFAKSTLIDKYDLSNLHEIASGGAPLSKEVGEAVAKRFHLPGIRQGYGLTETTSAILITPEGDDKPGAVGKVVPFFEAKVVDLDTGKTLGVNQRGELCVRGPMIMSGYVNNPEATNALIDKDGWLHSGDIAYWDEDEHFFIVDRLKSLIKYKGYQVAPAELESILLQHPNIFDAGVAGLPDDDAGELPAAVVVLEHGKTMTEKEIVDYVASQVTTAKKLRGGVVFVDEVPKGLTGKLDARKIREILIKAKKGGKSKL

For `CCCCNC(=O)COC(=O)c1cc(Br)ccc1Cl`, the IC50 [1] was 9.24 µM (active).

With `O[C@H]1[C@H](O)[C@@H](O)CN2CC[C@H](O)[C@H]12` [CASTANOSPERMINE] the GI50 [2] was > 91 µM (inactive), the GI50 [3] was > 100 µM (inactive) and the GI50 [4] was > 100 µM (inactive).

In the case of `C=C1C(=O)OC2CC3(C)OC3C3OC3C3=CC(OC3=O)C12` (stereo unspecified), the AC50 [5] is reported as 1.45 µM (active), the AC50 [6] is reported as 19.2 µM (active) and the AC50 [7] is reported as 1.86 µM (active).

For `COc1ccc(C(=O)C(C)OC(=O)c2cccc(S(=O)(=O)Nc3cc(Cl)c(OC)cc3OC)c2)cc1` (stereo unspecified), the AC50 [5] was 5.54 µM (active), the AC50 [6] was > 70 µM (inactive) and the AC50 [7] was 28.6 µM (active).

In the case of `O=C(N/N=C/c1ccccn1)c1cccc(S(=O)(=O)Nc2ccccc2Cl)c1`, the IC50 [1] is reported as 47.1 µM (active).

For `Cc1cc(-c2sccc2Br)nc(-n2cccc2)n1`, the EC50 [8] was > 120 µM (not active), the EC50 [9] was 13.3 µM (active) and the EC50 [10] was 9.52 µM (active).

For `O=C1ON=C(c2ccc([N+](=O)[O-])cc2)/C1=C/c1ccccc1O`, the IC50 [11] was 32.4 µM (active).

With `Cc1cc(C(=O)N/N=C/c2cc([N+](=O)[O-])cc(C)c2O)[nH]n1` the IC50 [12] was 8.76 µM (active) and the IC50 [13] was 11.8 µM (active).

With `CCN(CC)CCNC(=O)c1nn(-c2ccc(C)cc2)c(=O)c2c1c1ccccc1n2C` the EC50 [8] was 15 µM (active), the EC50 [9] was > 120 µM (not active) and the EC50 [10] was 61.3 µM (active). For the same compound, the EC50 [14] was 0.157 µM (active) and the EC50 [15] was > 30 µM (not active).

In the case of `CN(C)CCNCc1c2ccccc2c(CNCCN(C)C)c2ccccc12`, the GI50 [2] is reported as > 100 µM (inactive), the GI50 [3] is reported as 25 µM (inactive) and the GI50 [4] is reported as 36.9 µM (inactive).

With `O=C(Nc1ccccc1F)c1ccc2nc(N3C(=O)CCC3=O)sc2c1` the EC50 [8] was 29.8 µM (active), the EC50 [9] was 32.5 µM (active) and the EC50 [10] was 8.54 µM (active).

For `c1ccc(-c2ccccc2OCCCCn2ccnc2)cc1`, the IC50 [1] was 18.1 µM (active) and the IC50 [16] was 127 µM (active).

In the case of `CCCOC1CCCN(C(=O)c2cc(COc3cncc(Cl)c3)on2)C1` (stereo unspecified), the EC50 [8] is reported as 3.46 µM (active), the EC50 [9] is reported as 47.5 µM (active) and the EC50 [10] is reported as 59.7 µM (active).

For `C=C1CC(COc2cc(=O)oc3ccccc23)(c2ccccc2)OC1=O` (stereo unspecified), the AC50 [5] was 3.93 µM (active), the AC50 [6] was 13.7 µM (active) and the AC50 [7] was 7.58 µM (active).

In the case of `O=C(O)/C=C/C(=O)c1c(-c2ccccc2)[nH]c2ccccc12`, the IC50 [11] is reported as > 100 µM (active).

In the case of `Cn1c(-c2ccccc2)cc(-c2cccs2)c1-c1cccs1`, the GI50 [2] is reported as 33.2 µM (inactive), the GI50 [3] is reported as 18.1 µM (inactive) and the GI50 [4] is reported as 10.8 µM (inactive).

With `CC(=O)c1ccc2c(c1)C1C=CCC1C(c1ccncc1)N2` (stereo unspecified) the EC50 [17] was > 300 µM (not active), the EC50 [8] was 14.4 µM (active) and the EC50 [9] was 9.61 µM (active). The EC50 [10] was 25.5 µM (active) and the EC50 [18] was 47.7 µM (active).

In the case of `CC1[C@@H]2CC=C3[C@H]4CCC5Cc6nc7c(nc6C[C@@]5(C)C4(O)CC(=O)[C@]32CO[C@]12OC(C)(C)CC2O)CC1CC[C@@H]2C3=C[C@H]4O[C@@]5(O[C@@](C)(CO)C[C@@H]5O)C(C)[C@@]4(O)[C@]3(C)[C@@H](O)CC2[C@]1(C)C7` (stereo partly specified), the GI50 [2] is reported as 0.00879 µM (active) and the GI50 [4] is reported as 0.00036 µM (active).

In the case of `Cc1ccc(S(=O)(=O)NCc2ccc3c(c2)cc(C)n3C)cc1`, the EC50 [14] is reported as 3.2 µM (active), the EC50 [15] is reported as > 60 µM (not active) and the IC50 [12] is reported as 86.6 µM (active).

In the case of `O=C(N/N=C/c1cccc2nccnc12)c1ccncc1`, the IC50 [1] is reported as 0.21 µM (active).

With `O=C(O)CCC(NC(=O)c1ccc(Nc2nc3ccc(C(F)(F)F)cc3nc2-c2ccccc2)cc1)C(=O)O` (stereo unspecified) the GI50 [2] was 71.1 µM (inactive), the GI50 [3] was > 100 µM (inactive) and the GI50 [4] was 35 µM (inactive).

With `O=C(N/N=C/C=C/c1ccccc1[N+](=O)[O-])c1ccncc1` the IC50 [1] was 0.4 µM (active).

With `CCN1CC2(CO)CCC(OC)C34C5CC6C(OC)CC(O)(C5C6OC)C(O)(C(OC)C23)C14` (stereo unspecified) the GI50 [2] was > 80.7 µM (inactive), the GI50 [3] was > 375 µM (inactive) and the GI50 [4] was > 174 µM (inactive).

For `COc1cc(O)c2c(=O)c(-c3ccc(O[C@@H]4O[C@H](CO)[C@@H](O)[C@H](O)[C@H]4O)cc3)coc2c1`, the EC50 [8] was 0.25 µM (active), the EC50 [9] was 38.6 µM (active) and the EC50 [10] was 21.2 µM (active).

In the case of `O=C(/C=C/c1ccccc1Cl)Nc1ccncc1`, the EC50 [8] is reported as 26.2 µM (active), the EC50 [9] is reported as 56.2 µM (active) and the EC50 [10] is reported as 0.524 µM (active). The EC50 [19] was 20.6 µM (active) and the EC50 [20] was 26.7 µM (active).

For `CCOC(=O)c1cc(C)n(CCc2ccccc2)c1C`, the EC50 [8] was > 120 µM (not active), the EC50 [9] was 15.7 µM (active) and the EC50 [10] was > 120 µM (not active).

With `O=CNc1cccc2c3c([nH]c12)CCCCCC3` the GI50 [2] was 73.1 µM (inactive), the GI50 [3] was > 100 µM (inactive) and the GI50 [4] was > 65.3 µM (inactive).

With `Cn1cccc1/C=N/NC(=O)c1ccncc1` the IC50 [1] was 0.75 µM (active).

For `O=C1NC(=O)C(=Cc2cc(Cl)ccc2OCc2ccc(C(=O)O)cc2)C(=O)N1`, the IC50 [11] was 20.7 µM (active).

With `CCc1cccc(NC(=O)Nc2cccs2)c1` the EC50 [8] was 14.6 µM (active), the EC50 [9] was 2.48 µM (active) and the EC50 [10] was > 120 µM (not active).

In the case of `CN(C)/N=N/c1[nH]cnc1C(N)=O` [DACARBAZINE], the GI50 [2] is reported as 40.3 µM (inactive), the GI50 [3] is reported as 28.6 µM (inactive) and the GI50 [4] is reported as 19.3 µM (inactive).

With `CC(C)(C)OC(=O)NCCCCCNC(=O)c1[nH]cnc1C(=O)NCc1ccc(CNC(=O)OC(C)(C)C)cc1` the AC50 [5] was 3.95 µM (active), the AC50 [6] was > 70 µM (inactive) and the AC50 [7] was 8.62 µM (active).

In the case of `Nc1nc(=O)n(C2OC(CO)C(O)C2O)cc1F` (stereo unspecified), the GI50 [2] is reported as 0.016 µM (active), the GI50 [3] is reported as 0.0705 µM (active) and the GI50 [4] is reported as < 0.0107 µM (active).
